One block for each molecule: values may come before it.
Key:
[1] = system: RAJI; test: Cytotoxic MTS assay, Raji; format: cell-based; conditions: human leukemia cell line, 72 h, median of five assays
From the text: (§1) The cancer cell lines used in the cytotoxic assays were acquired from the American Tissue Culture Collection (ATCC) (Manassas, VA, USA) and maintained as described previously. The MRC-5 and BJ human fibroblasts were used as non-tumoral control cells. The (MRC-5 LD and BJ LD) are also human fibroblast cell lines resistant to doxorubicin. […] The Raji and Ramos cell lines correspond to B-cell leukemia. Other cells, such as U2OS, represent a child osteosarcoma, while HCT116 is a colorectal tumor cell line. (HCT116p53^−/−, Horizon Discovery Ltd., Cambridge, UK) is a similar cell line with its p53 gene knocked down, serving as a model of human cancer frequently associated with a poor prognosis. The cells were maintained in Nunc/corning 80 cm^2 plastic tissue culture flasks and cultured in a cell culture medium according to ATCC or Horizon recommendations (McCoy, DMEM/RPMI 1640 with 5 g/L glucose, 2 mM glutamine, 100 U/mL penicillin, […] streptomycin, 10% fetal calf serum, and NaHCO3). The compounds were freshly dissolved in DMSO. The final concentration of DMSO was 0.01% in the cell culture.
(§2) The in vitro cytotoxicity of compounds (1–7) was assessed using the standard 3-(4,5-dimethyl-thiazol-2yl)-5-(3-carboxymethoxyphenyl)-2-(sulfophenyl)-2H-tetrazolium (MTS). The assay was performed at the Institute of Molecular and Translational Medicine using a robotic platform (High-ResBiosolutions, Beverly, MA, USA). Cell suspensions were prepared and diluted according to the specific cell type and the expected target cell density (25,000–35,000 cells/mL, based on cell growth characteristics). An automatic pipettor (30 μL) was used to add cells into 384-well microtiter plates. All tested compounds were dissolved in 100% DMSO, and four-fold dilutions of the intended test concentrations were added in 0.15 μL aliquots at time zero to the microtiter plate wells by the echo acoustic non-contact liquid handler Echo550 (Labcyte, San Jose, CA, USA). The assays were accomplished in technical duplicates and at least three biological replicates. The cells were incubated with the tested compound for 72 h at 37 °C in a 5% CO2 atmosphere with 100% humidity. At the end of the incubation period, cells were assayed using the MTS test. Aliquots (5 μL) of the MTS stock solution were pipetted into each well and incubated for 1–4 h. After this incubation period, the optical density (OD) was measured at 490 nm using an Envision reader (PerkinElmer, Waltham, MA, USA). Tumor cell survival (TCS) was calculated using the following equation: TCS = (OD drug-exposed well/mean OD control wells) × 100%. The IC50 value, representing the concentration of the compound lethal to 50% of the tumor cells, was calculated from the corresponding dose-response curves using Dotmatics software (Updated version 2022, London, UK). After three days of incubation on the cancer cell lines and normal fibroblasts, the […] (IC50) were obtained. Five assays were performed for each cell line. The standard error of the assays was lower than 10%, as assessed by the triplicate assays.

[2] = system: HCT116KO53 spheroids; test: Spheroid viability assay (CellTiter-Glo 3D), HCT116 p53 KO spheroids; format: cell-based; conditions: 72 h, 100 pM to 50 μM
Description: (§3) Spheroid culture aims to analyze the drug’s effect on complex structures resembling solid tumors. The spheroids were prepared using the specific nonadherent plates for spheroid formation (Nunc Sphera, Thermo Fisher, Waltham, MA, USA) according to the simple protocol outlined by the manufacturer. The cell lines HCT116 parental, HCT116KOTp53, A549, and U2OS were cultured at a density of 2500 cells per well using medium containing 10% fetal calf serum and antibiotics: McCoy’s 5A medium for HCT116, F-12K (Kaighn’s Modified) for A549, and Dulbecco’s Modified Eagle Medium (DMEM). The cells were grown in culture for 48 h as recommended by the manufacturer and as described by Das et al. and Muñoz-Garcia et al..
(§4) The cell viability of the treated spheroids was assessed using the kit CellTiter-Glo 3D (Promega Corporation, Madison, WI, USA). The kit is designed to measure ATP as an indicator of viability, generating a luminescent readout that is more sensitive than colorimetric or fluorescence-based methods. The spheroids were cultivated with compounds at concentrations ranging from 100 pM to 50 μM in triplicate for 72 h, and the luminescence was measured using the Enspire apparatus (PerkinElmer). A standard curve was performed for each analysis as recommended by the manufacturer.

[3] = system: BJ; test: Cytotoxic MTS assay, BJ fibroblasts; format: cell-based; conditions: human fibroblasts, 72 h, median of five assays
From the text: as §1, §2

[4] = system: RAMOS; test: Cytotoxic MTS assay, Ramos; format: cell-based; conditions: human leukemia cell line, 72 h, median of five assays
From the text: as §1, §2

[5] = system: HCT116 par; test: Cytotoxic MTS assay, HCT116 parental 2D; format: cell-based; conditions: 72 h, median of five assays
From the text: as §1, §2

[6] = system: MRC-5 LD; test: Cytotoxic MTS assay, MRC-5 LD fibroblasts (doxorubicin-resistant); format: cell-based; conditions: 72 h, median of five assays
From the text: as §1, §2

[7] = system: A549 spheroids; test: Spheroid viability assay (CellTiter-Glo 3D), A549 spheroids; format: cell-based; conditions: 72 h, 100 pM to 50 μM
Description: as §3, §4

[8] = system: BJ LD; test: Cytotoxic MTS assay, BJ LD fibroblasts (doxorubicin-resistant); format: cell-based; conditions: doxorubicin-resistant human fibroblasts, 72 h, median of five assays
From the text: as §1, §2

[9] = system: U2OS spheroids; test: Spheroid viability assay (CellTiter-Glo 3D), U2OS spheroids; format: cell-based; conditions: human tumors spheroids, 72 h, 100 pM to 50 μM
Description: as §3, §4

[10] = system: caspase 3; test: Caspase 3 activity in lysed HCT116 cells from 2D and spheroids; format: cell-based, human; conditions: 12 h; for Caspase 3 activity, spheroid culture: HCT116 parental spheroids, 25 µM (cisplatin 15 μM); for Caspase 3 activity, 2D culture: HCT116 parental, 25 µM
Description: (§5) The assay was designed to evaluate the impact of various compounds on caspase activity using a standardized quantity of cell protein lysates after 12 h of incubation. The parental line HCT116 served as the basis for these experiments. Three distinct caspases were examined employing the fluorescence assay kits from Calbiochem (San Diego, CA, USA), specifically a fluorometric caspase-8 assay kit and a fluorimetric caspase-3 assay kit. Additionally, the fluorometric kit from Abcam was utilized to assess caspase-9 activity. Due to the variations in protocols for each caspase, separate plates were prepared for each assay, encompassing both two-dimensional (2D) cell cultures and spheroids. The compound concentrations were established at 25 µM, and assays were conducted in quintuplicate following a 12-h incubation period. The cells were harvested from the plates using the standard trypsin-EDTA solution (Merck Sigma Aldrich, Saint Louis, MO, USA), washed, and counted before lysis, as described in each kit. Cell processing adhered to the guidelines provided by the respective companies, and protein concentration was calculated and standardized using the standard BCA assay. Fluorescent readings were captured using the Enspire apparatus (Perkin-Elmer, MA, USA). Positive controls utilized included staurosporine at a concentration of 5 μM and cisplatin at 15 μM. The kits provided their own standards; however, to normalize all the readings between cultures, types, and treatments, the results were expressed as a percentage relative to the positive control, staurosporine, in 2D culture. […] A total of three separate assays were conducted for each caspase.

[11] = system: caspase 8; test: Caspase 8 activity in lysed HCT116 cells from 2D and spheroids; format: cell-based, human; conditions: HCT116 parental spheroids, 25 µM (cisplatin 15 μM), 12 h
Description: as §5

[12] = system: MRC-5; test: Cytotoxic MTS assay, MRC-5 fibroblasts; format: cell-based; conditions: 72 h, median of five assays
From the text: as §1, §2

[13] = system: HCT116 par spheroids; test: Spheroid viability assay (CellTiter-Glo 3D), HCT116 parental spheroids; format: cell-based; conditions: 72 h, 100 pM to 50 μM
Description: as §3, §4

[14] = system: K562; test: Cytotoxic MTS assay, K562; format: cell-based; conditions: 72 h, median of five assays
From the text: as §1, §2

[15] = system: CCRF-CEM; test: Cytotoxic MTS assay, CCRF-CEM; format: cell-based; conditions: human leukemia cell line, 72 h, median of five assays
From the text: as §1, §2

[16] = system: caspase 9; test: Caspase 9 activity in lysed HCT116 cells from 2D and spheroids; format: cell-based, human; conditions: HCT116 parental spheroids, 25 µM (cisplatin 15 μM), 12 h
Description: as §5

[17] = system: A549; test: Cytotoxic MTS assay, A549 2D; format: cell-based; conditions: 72 h, median of five assays
From the text: as §1, §2

[18] = system: mixed spheroids of MRC-5 fibroblasts with HCT116 or HCT116 p53 KO cells; test: Mixed spheroid viability assay; format: cell-based, human; conditions: mixed spheroids of fibroblasts and tumor cells
Description: as §4, with “Mixed spheroids were made by mixing MRC-5 fibroblasts with HCT116 or HCT116 p53 KO cells at a ratio of 1:1 (1000 cells/well); the cells were added immediately one after the other, and the formation of spheroids was monitored for 48 hrs. The mixed spheroids of both cell types had similar morphological features. The cell” for “The cell”

[19] = system: U2OS; test: Cytotoxic MTS assay, U2OS 2D; format: cell-based; conditions: human tumors 2D, 72 h, median of five assays
From the text: as §1, §2

[20] = system: HCT116KO53; test: Cytotoxic MTS assay, HCT116 p53 knockout 2D; format: cell-based; conditions: 72 h, median of five assays
From the text: as §1, §2

[21] = system: normal human leukocytes; design: method as in PMID 31449809, PMID 35430982; conditions: 0.1 nM to 50 μM in 0.01% DMSO; cited from earlier work
[22] = HCT-116, human tumors spheroids
[23] = MRC5, doxorubicin-resistant human fibroblasts

SMILES: N.N.[Cl][Pt][Cl] [Cisplatin, reference compound]
IC50 [1]: 0.68 µM
IC50 ([2]; human tumors spheroids): 45.7 µM
IC50 [3]: 9.5 µM
IC50 [4]: 0.56 µM
IC50 ([5]; human tumors 2D): 12.5 µM
IC50 ([6]; doxorubicin-resistant human fibroblasts): 23.5 µM
IC50 ([7]; human tumors spheroids): 49.8 µM
IC50 [8]: 17.8 µM
IC50 [9]: 21.8 µM
Caspase 3 activity, spheroid culture [10]: caspase activation was observed
Caspase 8 activity, spheroid culture [11]: caspase activation was observed
IC50 ([12]; human fibroblasts): 3.98 µM
IC50 ([13]; human tumors spheroids): 15.9 µM
IC50 ([14]; human leukemia cell line): 6.98 µM
IC50 [15]: 4.62 µM
Caspase 9 activity, spheroid culture [16]: caspase activation was observed
IC50 ([17]; human tumors 2D): 9.51 µM
IC50 [18]: 26.8 µM
IC50 [19]: 9.56 µM
IC50 ([20]; human tumors 2D): 8.34 µM

IC50 [2, 22]: > 50 µM
IC50 ([7]; A549, human tumors spheroids): > 50 µM
IC50 ([9]; U2OS): > 50 µM
SMILES: C=C1C(=O)C23CCC(C(=C)C)C(C)(CCC(=O)O)C2CCC1C3 (stereo not shown) [Compound 1, Caracasine Acid]
Effect on primary leukocytes [21]: no significant effect
IC50 ([1]; Raji): 0.85 µM
IC50 ([3]; BJ): 6.88 µM
IC50 ([4]; Ramos): 0.62 µM
IC50 ([5]; HCT-116, human tumors 2D): 1.73 µM
IC50 [6, 23]: 6.69 µM
IC50 ([8]; Fibroblast): 7.04 µM
Caspase 3 activity, spheroid culture [10]: absence of caspase activity
Caspase 3 activity, 2D culture [10]: significant changes
Caspase 8 activity, spheroid culture [11]: absence of caspase activity
IC50 ([12]; MRC5, human fibroblasts): 6.48 µM
IC50 [13, 22]: > 50 µM
IC50 ([14]; K562, human leukemia cell line): 4.77 µM
IC50 ([15]; CCRF-CEM): 0.38 µM
Caspase 9 activity, spheroid culture [16]: absence of caspase activity
IC50 ([17]; A549, human tumors 2D): 5.98 µM
IC50 ([19]; U2OS): 1.79 µM
IC50 ([20]; HCT-116, human tumors 2D): 1.52 µM

IC50 [2, 22]: > 50 µM
IC50 ([7]; A549, human tumors spheroids): > 50 µM
IC50 ([9]; U2OS): > 50 µM
SMILES: C=C1C(=O)C23CCC(C(=C)C)C(C)(CCC(=O)OC4CCCCC4)C2CCC1C3 (stereo not shown) [Compound 3, Caracasine Acid Cyclohexyl Ester]
IC50 ([1]; Raji): 1.86 µM
IC50 ([3]; BJ): 7.38 µM
IC50 ([4]; Ramos): 0.78 µM
IC50 ([5]; HCT-116, human tumors 2D): 1.59 µM
IC50 [6, 23]: 2.69 µM
IC50 ([8]; Fibroblast): 6.5 µM
Caspase 3 activity, spheroid culture [10]: absence of caspase activity
Caspase 3 activity, 2D culture [10]: significant changes
Caspase 8 activity, spheroid culture [11]: absence of caspase activity
IC50 ([12]; MRC5, human fibroblasts): 5.45 µM
IC50 [13, 22]: > 50 µM
IC50 ([14]; K562, human leukemia cell line): 2.21 µM
IC50 ([15]; CCRF-CEM): 0.38 µM
Caspase 9 activity, spheroid culture [16]: absence of caspase activity
IC50 ([17]; A549, human tumors 2D): 2.69 µM
IC50 ([19]; U2OS): 1.66 µM
IC50 ([20]; HCT-116, human tumors 2D): 1.63 µM

Source: PMC12298629, “New Derivatives of Caracasine Acid with Anti-Leukemic Activity and Limited Effectiveness in Spheroid Cultures” (Pharmaceuticals, 2025)
